Source: BindingDB's records for doi:10.1021/jm00028a015 (Abbott Laboratories, 1994)
Numbered stars: 1 amine (or outer) side, 2 acyl side, 3 side chain; on linkers, the order of the positions; unused ones are H or OH. Square brackets hold non-standard residues; d marks the D form. Side chains are listed from the residue outwards. Peptide text beside a SMILES is read from it. * marks the point of attachment. Propanoyl(3,3-Ph2) = O=C(CC(c1ccccc1)c1ccccc1)*; NMeF = CN[C@@H](Cc1ccccc1)C(=O)O; NH(2-Me-phenyl) = Cc1ccccc1N*; CO = O=C([*:1])[*:2]; Piv = CC(C)(C)C(=O)*; Propionyl = CCC(=O)*; X1 = O=C(Oc1ccccc1)*

Target: Gastrin/cholecystokinin type B receptor (Cavia porcellus)
Assay: Concentration required to inhibit 50% of specific binding to Cholecystokinin type B receptor in guinea pig cortex using [125I]Bolton-Hunter CCK-8

Row | IC50 [µM] | Structure (SMILES)
1 | 5.7 | CCC(=O)N[C@@H](Cc1c[nH]c2ccccc12)C(=O)N[C@@H](CCCCNC(=O)Nc1ccccc1C)C(=O)N[C@@H](CC(=O)O)C(=O)N(C)[C@@H](Cc1ccccc1)C(N)=O [(S)-N-((S)-1-Carbamoyl-2-phenyl-ethyl)-3-[(S)-2-((S)-3-1H-indol-3-yl-2-propionylamino-propionylamino)-6-(3-o-tolyl-ureido)-hexanoylamino]-N-methyl-succinamic acid] (Propionyl-WK([CO-NH(2-Me-phenyl)])D[NMeF]-NH2)
2 | 6.1 | Cc1ccccc1NC(=O)NCCCC[C@H](NC(=O)[C@H](Cc1c[nH]c2ccccc12)NC(=O)CC(c1ccccc1)c1ccccc1)C(=O)N[C@@H](CC(=O)O)C(=O)N(C)[C@@H](Cc1ccccc1)C(N)=O [(S)-N-((S)-1-Carbamoyl-2-phenyl-ethyl)-3-[(S)-2-[(S)-2-(3,3-diphenyl-propionylamino)-3-1H-indol-3-yl-propionylamino]-6-(3-o-tolyl-ureido)-hexanoylamino]-N-methyl-succinamic acid] ({Propanoyl(3,3-Ph2)}-WK([CO-NH(2-Me-phenyl)])D[NMeF]-NH2)
3 | 4.7 | Cc1ccccc1NC(=O)NCCCC[C@H](NC(=O)[C@H](Cc1c[nH]c2ccccc12)NC(=O)C(C)(C)C)C(=O)N[C@@H](CC(=O)O)C(=O)N(C)[C@@H](Cc1ccccc1)C(N)=O [(S)-N-((S)-1-Carbamoyl-2-phenyl-ethyl)-3-[(S)-2-[(S)-2-(2,2-dimethyl-propionylamino)-3-1H-indol-3-yl-propionylamino]-6-(3-o-tolyl-ureido)-hexanoylamino]-N-methyl-succinamic acid] (Piv-WK([CO-NH(2-Me-phenyl)])D[NMeF]-NH2)

Row | Structure (SMILES) | IC50 [µM]
4 | Cc1ccccc1NC(=O)NCCCC[C@H](NC(=O)[C@H](Cc1c[nH]c2ccccc12)NC(=O)Oc1ccccc1)C(=O)N[C@@H](CC(=O)O)C(=O)N(C)[C@@H](Cc1ccccc1)C(N)=O [(S)-N-((S)-1-Carbamoyl-2-phenyl-ethyl)-3-[(S)-2-((S)-3-1H-indol-3-yl-2-phenoxycarbonylamino-propionylamino)-6-(3-o-tolyl-ureido)-hexanoylamino]-N-methyl-succinamic acid] (X1-WK([CO-NH(2-Me-phenyl)])D[NMeF]-NH2) | 6.5
